Test results from patent publication US12194080B2, “Methods for identification, assessment, prevention, and treatment of metabolic disorders using PM20D1 and N-lipidated amino acids” (Dana-Farber Cancer Institute, Inc., priority 2015, dated 2025).

Tests used:
[1] = test system: primary inguinal fat cells, primary BAT cells, C2C12 cells, and U2OS cells; experiment: Uncoupled respiration cellular assays (variety of cell types); format: cell-based; settings: N-acyl amino acids at 10-100 uM
Procedure: (§1) Cellular oxygen consumption rates were determined using an XF24 Extracellular Flux Analyzer (Seahorse Biosciences). Oligomycin was purchased from EMD Millipore, and FCCP and rotenone were purchased from Sigma. C2C12 or U2OS cells were seeded at 30,000 or 50,000 cells/well, respectively in an XF24 cell culture microplate (V7-PS, Seahorse Bioscience) and analyzed the following day. Primary iWAT or BAT adipocytes were seeded at 15,000 cells/well, differentiation was induced the following day as described, and the cells were analyzed on day 5. On the day of analysis, the cells were washed once with Seahorse respiration buffer (8.3 g/1 DMEM, 1.8 g/l NaCl, 1 mM pyruvate, 20 mM glucose, pen/strep), placed in 0.5 ml Seahorse respiration buffer, and incubated in a CO2-free incubator for 1 hr. Port injection solutions were prepared as follows (final concentrations in assay in parentheses): 10 μM oligomycin (1 μM final), […] amino acid (50 μM final), 2 μM FCCP (0.2 μM final), and 30 μM rotenone (3 μM final). The Seahorse program was run as follows: basal measurement, 3 cycles; inject port A (oligomycin), 3 cycles; inject port B (compounds), 8 cycles; inject port C (FCCP), 3 cycles; inject port D (rotenone), 3 cycles. Each cycle consisted of mix 4 min, wait 0 min, and measure 2 min. For data expressed as a percentage of oligomycin-treated basal, the respiration at cycle 6 was normalized to 100%, and the maximum respiration at any time point between cycles 7 and 15 inclusive was used.

C2C12 cells = experiment: Cellular oxygen consumption rate (uncoupled respiration), C2C12 cells; format: cell-based, mouse; settings: 50 μM, after oligomycin 1 μM
Procedure: C2C12, U2O5, and 293A cells were cultured in DMEM with 10% FBS and pen/strep. Primary inguinal (iWAT) and brown (BAT) adipocytes were obtained as follows. The stromal-vascular fraction of inguinal (iWAT) pad from 4-12 week old male mice was dissected, minced, and digested for 45 min. at 37° C. in PBS containing 10 mM CaCl2, 2.4 U/ml dispase II (Roche), and 1.5 U/ml collagenase D (Roche). The stromal-vascular fraction of brown fat (BAT) pads from newborn (P1-P14) pups was dissected, minced, and digested for 45 min at 37° C. in PBS containing 1.3 mM CaCl2, 120 mM NaCl, 5 mM KCl, 5 mM glucose, 100 mM HEPES, 4% BSA, and 1.5 mg/ml collagenase B (Roche). Digested tissue was diluted with adipocyte culture media (DMEM/F-12, GlutaMAX™ supplement, Life Technologies, with 10% FBS and pen/strep) and centrifuged (600×g for 10 min.). The pellet was resuspended in 10 ml adipocyte culture media, strained through a 40 μm filter, and plated. Differentiation was induced by application of an adipogenic cocktail containing 5 μg/ml insulin (Sigma), 5 μM dexamethasone (Sigma), 250 μM isobutylmethylxanthine (Sigma), and 1 μM rosiglitazone (Cayman) for 2 days. Two days after induction, cells were maintained in adipocyte culture media containing 5 μg/ml insulin and 1 μM rosiglitazone.
as §1

mouse PM20D1 [2] = target: T1, mouse PM20D1 (Mus musculus, UniProt Q8C165); experiment: In vitro PM20D1-catalyzed N-acyl amino acid hydrolysis; format: biochemical; settings: N-acyl amide substrate 100 μM
T1 construct: Full-length mouse Pm20d1 cDNA (GE Dharmacon) was subcloned with an in-frame C-terminal 6× His and FLAG® tag; made in house; host or cells: 293A (HEK293A) cells stably infected with retrovirus
T1 sequence (Q8C165 25-503): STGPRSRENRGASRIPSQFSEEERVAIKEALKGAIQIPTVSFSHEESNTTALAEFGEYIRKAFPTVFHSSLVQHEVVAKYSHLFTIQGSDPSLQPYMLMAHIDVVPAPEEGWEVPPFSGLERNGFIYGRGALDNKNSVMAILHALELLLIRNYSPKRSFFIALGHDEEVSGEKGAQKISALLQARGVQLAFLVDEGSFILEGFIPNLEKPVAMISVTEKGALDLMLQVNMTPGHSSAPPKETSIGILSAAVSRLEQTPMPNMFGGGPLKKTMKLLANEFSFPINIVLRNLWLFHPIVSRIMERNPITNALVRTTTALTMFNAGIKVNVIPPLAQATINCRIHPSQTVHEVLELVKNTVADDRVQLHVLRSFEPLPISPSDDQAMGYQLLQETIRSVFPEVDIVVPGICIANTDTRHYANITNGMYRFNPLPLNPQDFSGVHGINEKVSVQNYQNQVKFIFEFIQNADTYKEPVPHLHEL
Procedure: (§2) The concentrated media was centrifuged to remove debris (600×g, 10 min, 4° C.) and the supernatant containing PM20D1-flag was decanted into a new tube. PM20D1-Flag was immunoaffinity purified overnight at 4° C. from the concentrated media using magnetic Flag-M2 beads (Sigma Aldrich). The beads were collected, washed three times in PBS, eluted with 3× Flag peptide ([…] in PBS, Sigma Aldrich), aliquoted, and stored at −80° C. For the purification of human PM20D1-flag, hPM20D1-flag plasmid (Origene) was transiently transfected into 293A cells. After two days, the media was changed, harvested 24 h later, concentrated, and purified exactly as described above.
(§3) In vitro PM20D1-catalyzed synthesis of N-acyl amino acids was measured by incubating purified PM20D1 protein with oleate (1.5 mM) and phenylalanine (0.1 mM) in PBS (to 100 μl final volume) at 37° C. for 1.5 hrs. In vitro PM20D1-catalyzed N-acyl amino acid hydrolysis was measured by incubating purified PM20D1 protein with the indicated N-acyl amino acid (0.1 mM) in PBS (to 100 μl final volume) at 37° C. for 1.5 hrs. Reactions were terminated by placing the vials at −80° C. and the products generated in vitro were analyzed by mass spectroscopy (MS).
(§4) Briefly, frozen serum (30 μl) for polar metabolomic analyses were extracted in 160 μl of 1:1 acetonitrile/methanol with inclusion of internal standard D3, ^15N-serine (1 nmol). Activity assays (100 μl) were extracted in 400 μl 1:1 acetonitrile/methanol. Following 30 s of thorough vortexing and 1 min of bath sonication, the polar metabolite fraction (supernatant) was isolated by centrifugation at 13,000×g for 10 min. Ten μl of this supernatant was analyzed by SRM-based targeted LC-MS/MS, or untargeted LC-MS.
(§5) For separation of polar metabolites, normal-phase chromatography was performed with a […] column (50 mm×4.60 mm, Phenomenex). Mobile phases were as follows: Buffer A, acetonitrile; Buffer B, 95:5 water/acetonitrile with 0.1% formic acid or 0.2% ammonium hydroxide with 50 mM ammonium acetate for positive and negative ionization mode, respectively. The flow rate for each run started at 0.2 ml/min for 2 min, followed by a gradient starting at 0% B and increasing linearly to 100% B over the course of 15 min with a flow rate of 0.7 ml/min, followed by an isocratic gradient of 100% B for 10 min at 0.7 ml/min before equilibrating for 5 min at 0% B with a flow rate of 0.7 ml/min. MS analysis was performed with an electrospray ionization (ESI) source on an Agilent 6430 QQQ LC—MS/MS. The capillary voltage was set to 3.5 kV, and the fragmentor voltage was set to 100 V. The drying gas temperature was 325° C., the drying gas flow rate was 10 l/min, and the nebulizer pressure was 45 psi. For polar targeted and untargeted metabolomic analysis, representative metabolites were quantified by SRM of the transition from precursor to product ions (corresponding to amino acid fragment) at associated collision energies. Several representative fragmentation ions are as follows: C18:1-Ala, 352>88; C18:1-Gly, 338>74; C18:1-Phe, 428>164; C18:1-Leu/Ile, 394>130; C20:4-Phe, 450>164; C20:4-Leu/Ile, 416>130. Untargeted LC-MS was performed by scanning a mass range of m/z 50-1200, and data were exported as mzdata files and uploaded to XCMSOnline (xcmsserver.nutr.berkeley.edu) to identify metabolites that were differentially changed. For targeted metabolomics analysis, metabolites were quantified by integrating the area under the peak and were normalized to internal standard values corresponding to 1 nmol D3, ^15N-serine.

mouse PM20D1 [3] = target: T1, mouse PM20D1; experiment: In vitro PM20D1-catalyzed synthesis of N-acyl amino acids; format: biochemical; settings: for substrate of the PM20D1 synthase reaction: head group 100 μM, oleate or arachidonate 1.5 mM, C18:1-CoA 0.7 mM
Procedure: as §2, §3, §4, §5

Row | Compound | uncoupled respiration in cells [1] | uncoupling activity (uncoupled respiration) (C2C12 cells) | further results
1 | CCCCCC[C@@H](O)C/C=C\CCCCCCCC(=O)N[C@@H](C)c1ccccc1 [(S)-alpha-methylbenzyl ricinoleamide, reference compound] | inactive | – | –
2 | CCCCCCCC/C=C\CCCCCCCC(=O)N[C@@H](CCC(N)=O)C(=O)O [C18:1-Gln, Oleoyl-L-glutamine] | – | possessed the uncoupling activity | –
3 | CCCCCCCC/C=C\CCCCCCCC(=O)NCC(=O)O [C18:1-Gly] | – | – | substrate of the PM20D1 hydrolysis reaction (mouse PM20D1 [2]): substrates
4 | CCCCCCCC/C=C\CCCCCCCC(=O)N[C@@H](CCCCN)C(=O)O [C18:1-Lys, Oleoyl-L-lysine] | – | not | –
5 | CCCCCCCC/C=C\CCCCCCCC(=O)N[C@@H](CO)C(=O)O [C18:1-Ser] | – | – | substrate of the PM20D1 hydrolysis reaction (mouse PM20D1 [2]): substrates
6 | CCCCC/C=C\C/C=C\C/C=C\C/C=C\CCCC(=O)NC [N-arachidonoyl N-methyl amide, N-methyl N-arachidonoyl amide, reference compound] | inactive | did not stimulate uncoupled respiration | –
7 | CCCCC/C=C\C/C=C\C/C=C\C/C=C\CCCC(=O)NCCc1ccc(O)c(O)c1 [N-arachidonoyl dopamine, reference compound] | inactive | did not stimulate uncoupled respiration | –
8 | CCCCC/C=C\C/C=C\C/C=C\C/C=C\CCCC(=O)NCCCC(=O)O [N-arachidonoyl gamma amino butyric acid] | increased uncoupled respiration | stimulate uncoupled respiration | –
9 | CCCCC/C=C\C/C=C\C/C=C\C/C=C\CCCC(=O)N[C@@H](CO)C(=O)O [N-arachidonoyl serine] | increased uncoupled respiration | – | –
10 | CCCCC/C=C\C/C=C\C/C=C\C/C=C\CCCC(=O)NCCS(=O)(=O)O [N-arachidonoyl taurine, reference compound] | inactive | did not stimulate uncoupled respiration | –
11 | CCCCC/C=C\C/C=C\CCCCCCCC(=O)N[C@@H](Cc1ccccc1)C(=O)O [N-linoleoyl phenylalanine] | increased uncoupled respiration | – | –
12 | CCCCCCCC/C=C\CCCCCCCC(=O)NCCO [N-oleoyl ethanolamine, reference compound] | inactive | – | substrate of the PM20D1 hydrolysis reaction (mouse PM20D1 [2]): does not hydrolyze; substrate of the PM20D1 hydrolysis reaction (mouse PM20D1 [2]; listed as C18:1-EA): not a PM20D1 substrate
13 | CCCCCCCC/C=C\CCCCCCCC(=O)N[C@@H](Cc1ccccc1)C(N)=O [N-oleoyl phenylalanine amide, (S)-N-(1-amino-1-oxo-3-phenylpropan-2-yl)oleamide] | inactive | completely abrogated uncoupling activity | –
14 | CCCCCCCC/C=C\CCCCCCCC(=O)N[C@@H](Cc1ccccc1)C(=O)OC [N-oleoyl phenylalanine methyl ester, Methyl oleoyl-L-phenylalaninate] | inactive | completely abrogated uncoupling activity | –
15 | CCCCCCCCCCCCCCCC(=O)N[C@@H](Cc1ccccc1)C(=O)OC [N-palmitoyl phenylalanine methyl ester] | inactive | – | –
16 | N[C@@H](Cc1ccccc1)C(=O)O [Phe, phenylalanine] | – | – | substrate of the PM20D1 synthase reaction (mouse PM20D1 [3]): most efficiently converted to its corresponding N-acyl amino acid product
17 | CC(=O)[O-].CC(=O)[O-].[Zn+2] [Zn(OAc)2] | – | – | effect on PM20D1 reaction rate (mouse PM20D1 [3]; 2 mM added to the reaction in PBS): does not augment reaction rate and may decrease the rate
18 | NCCO [ethanolamine] | – | – | substrate of the PM20D1 synthase reaction (mouse PM20D1 [3]): not substrates for the synthase reaction
19 | N[C@@H](CCC(=O)O)C(=O)O [glutamate] | – | – | substrate of the PM20D1 synthase reaction (mouse PM20D1 [3]): not substrates for the synthase reaction
20 | CCCCC/C=C\C/C=C\C/C=C\C/C=C\CCCC(=O)N[C@H](C)CO [methanandamide, R(+)-methanandamide, reference compound] | inactive | did not stimulate uncoupled respiration | –
21 | CCCCC/C=C\C/C=C\C/C=C\C/C=C\CCCCOC(CO)CO [noladin ether, reference compound] | inactive | – | –
